Measured values taken from patent US20230081426A1, “COMPOUNDS AND METHODS FOR KRAS MODULATION AND INDICATIONS THEREFOR” (Plexxikon Inc., priority 2020, published 2023).

Tests used:
[1] = target: T1, G12D-mutant human KRAS (amino acid residues 1-188) (Homo sapiens, UniProt P01116, G12D); test: KRAS Binding Disruption Assay (AlphaScreen; biotinylated KRpep-2d analogue or RAF1-RBD), G12D; conditions: KRAS G12D; geometric mean; read-out: KRAS GMean IC50 (uM) MUTATION: G12D
T1 construct: G12D or G12C-mutant human KRAS (amino acid residues 1-188) with FLAG tag; made in house; host or cells: E. coli
Outline: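 Mutant KRAS (5-20 nM) incubated 1 h at 25° C with test compound and 5-20 nM biotinylated KRpep-2d analogue or RAF1-RBD in 20 mM HEPES pH 7.5, 100 mM NaCl, 5 mM MgCl2, 0.01% Tween-20, 0.01% BSA.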

[2] = target: T2, G12V-mutant human KRAS (amino acid residues 1-188) (Homo sapiens, UniProt P01116, G12V); test: KRAS Binding Competition Assay (AlphaScreen; biotinylated KRpep-2d analogue), G12V; conditions: geometric mean, read-out: KRAS GMean IC50 (uM) MUTATION: G12V
T2 construct: G12V-mutant human KRAS (amino acid residues 1-188) with FLAG tag was purified from E. coli; made in house; host or cells: E. coli

SMILES | IC50 [1] [µM] | IC50 [2] [µM]
CN1CCC[C@H]1COc1nc(N2C[C@H]3CC[C@@H](C2)N3C(=O)CC#N)c2cc(F)c(-c3cc(O)cc4ccccc34)c(F)c2n1 [P-0464, 3-((1R,5S)-3-(6,8-difluoro-7-(3-hydroxynaphthalen-1-yl)-2-(((S)-1-methylpyrrolidin-2-yl)methoxy)quinazolin-4-yl)-3,8-diazabicyclo[3.2.1]octan-8-yl)-3-oxopropanenitrile] | 10 to 100 | 0.0001 to 10
CN1C(=O)C(CC(=O)N2[C@@H]3CC[C@H]2CN(c2nc(OCC45CCCN4CCC5)nc4c(F)c(-c5cc(O)cc6ccccc56)ccc24)C3)N(C)C1=O (stereo partly drawn) [P-0386, 5-(2-((1R,5S)-3-(8-fluoro-7-(3-hydroxynaphthalen-1-yl)-2-((tetrahydro-1H-pyrrolizin-7a(5H)-yl)methoxy)quinazolin-4-yl)-3,8-diazabicyclo[3.2.1]octan-8-yl)-2-oxoethyl)-1,3-dimethylimidazolidine-2,4-dione] | 0.0001 to 10 | 0.0001 to 10
CN1CCC[C@H]1COc1nc(N2C[C@H]3CC[C@@H](C2)N3C(=O)CC2SC(N)=NC2=O)c2ccc(-c3cc(O)cc4ccccc34)cc2n1 (stereo partly drawn) [P-0370, 2-amino-5-(2-((1R,5S)-3-(7-(3-hydroxynaphthalen-1-yl)-2-(((S)-1-methylpyrrolidin-2-yl)methoxy)quinazolin-4-yl)-3,8-diazabicyclo[3.2.1]octan-8-yl)-2-oxoethyl)thiazol-4(5H)-one] | 0.0001 to 10 | 0.0001 to 10
CS(=O)(=O)CC(=O)N1[C@@H]2CC[C@H]1CN(c1nc(OCC34CCCN3CCC4)nc3c(F)c(-c4cc(O)cc5ccccc45)ccc13)C2 [P-0432, 1-((1R,5S)-3-(8-fluoro-7-(3-hydroxynaphthalen-1-yl)-2-((tetrahydro-1H-pyrrolizin-7a(5H)-yl)methoxy)quinazolin-4-yl)-3,8-diazabicyclo[3.2.1]octan-8-yl)-2-(methylsulfonyl)ethan-1-one] | 0.0001 to 10 | 0.0001 to 10
COc1ccc2[nH]cc(-c3ccc4c(N5C[C@H]6CC[C@@H](C5)N6)nc(OC[C@@H]5CCCN5C)nc4c3F)c2c1 [P-0314, 4-((1R,5S)-3,8-diazabicyclo[3.2.1]octan-3-yl)-8-fluoro-7-(5-methoxy-1H-indol-3-yl)-2-(((S)-1-methylpyrrolidin-2-yl)methoxy)quinazoline] | 10 to 100 | 100 to 1000
CN(C)CCCS(=O)(=O)N1[C@@H]2CC[C@H]1CN(c1nc(OCC34CCCN3CCC4)nc3c(F)c(-c4cc(O)cc5ccccc45)ccc13)C2 [P-0287, 4-(4-((1R,5S)-8-((3-(dimethylamino)propyl)sulfonyl)-3,8-diazabicyclo[3.2.1]octan-3-yl)-8-fluoro-2-((tetrahydro-1H-pyrrolizin-7a(5H)-yl)methoxy)quinazolin-7-yl)naphthalen-2-ol] | 0.0001 to 10 | 0.0001 to 10
CN1CCC[C@H]1COc1nc(N2C[C@H]3CC[C@@H](C2)N3C(=O)CC2CCNC2=O)c2ccc(-c3cc(O)cc4ccccc34)cc2n1 (stereo partly drawn) [P-0371, 3-(2-((1R,5S)-3-(7-(3-hydroxynaphthalen-1-yl)-2-(((S)-1-methylpyrrolidin-2-yl)methoxy)quinazolin-4-yl)-3,8-diazabicyclo[3.2.1]octan-8-yl)-2-oxoethyl)pyrrolidin-2-one] | 10 to 100 | 10 to 100
CN1CCC[C@H]1COc1nc(N2[C@@H]3CC[C@H]2CN(C(=O)c2ncc[nH]2)C3)c2ccc(-c3cc(O)cc4ccccc34)cc2n1 [P-0224, ((1R,5S)-8-(7-(3-hydroxynaphthalen-1-yl)-2-(((S)-1-methylpyrrolidin-2-yl)methoxy)quinazolin-4-yl)-3,8-diazabicyclo[3.2.1]octan-3-yl)(1H-imidazol-2-yl)methanone] | 10 to 100 | 0.0001 to 10
CN1CCC[C@H]1COc1nc(N2C[C@H]3CC[C@@H](C2)N3)c2ccc(-c3c[nH]c4ccc(Cl)cc34)c(F)c2n1 [P-0295, 4-((1R,5S)-3,8-diazabicyclo[3.2.1]octan-3-yl)-7-(5-chloro-1H-indol-3-yl)-8-fluoro-2-(((S)-1-methylpyrrolidin-2-yl)methoxy)quinazoline] | 0.0001 to 10 | 100 to 1000
Cc1[nH][nH]c(=O)c1CC(=O)N1[C@@H]2CC[C@H]1CN(c1nc(OCC34CCCN3CCC4)nc3c(F)c(-c4cc(O)cc5ccccc45)ccc13)C2 [P-0388, 4-(2-((1R,5S)-3-(8-fluoro-7-(3-hydroxynaphthalen-1-yl)-2-((tetrahydro-1H-pyrrolizin-7a(5H)-yl)methoxy)quinazolin-4-yl)-3,8-diazabicyclo[3.2.1]octan-8-yl)-2-oxoethyl)-5-methyl-1,2-dihydro-3H-pyrazol-3-one] | 0.0001 to 10 | 0.0001 to 10
CN1CCC[C@H]1COc1nc(N2[C@@H]3CC[C@H]2CN(C(=O)CCC2CCNCC2)C3)c2ccc(-c3cc(O)cc4ccccc34)cc2n1 [P-0193, 1-((1R,5S)-8-(7-(3-hydroxynaphthalen-1-yl)-2-(((S)-1-methylpyrrolidin-2-yl)methoxy)quinazolin-4-yl)-3,8-diazabicyclo[3.2.1]octan-3-yl)-3-(piperidin-4-yl)propan-1-one] | 10 to 100 | 10 to 100
CN1C2CCC1(COc1nc(N3C[C@H]4CC[C@@H](C3)N4)c3ccc(-c4cc(O)cc5ccccc45)cc3n1)CC2 [P-0185, 4-(4-((1R,5S)-3,8-diazabicyclo[3.2.1]octan-3-yl)-2-((7-methyl-7-azabicyclo[2.2.1]heptan-1-yl)methoxy)quinazolin-7-yl)naphthalen-2-ol] | 0.0001 to 10 | 10 to 100
CN1CCC[C@H]1COc1nc(N2C[C@H]3CC[C@@H](C2)N3)c2ccc(-c3ccccc3)cc2n1 [P-0151, 4-((1R,5S)-3,8-diazabicyclo[3.2.1]octan-3-yl)-2-(((S)-1-methylpyrrolidin-2-yl)methoxy)-7-phenylquinazoline] | 100 to 1000 | 100 to 1000
Cc1n[nH]c2cccc(-c3ccc4c(N5C[C@H]6CC[C@@H](C5)N6)nc(OC[C@@H]5CCCN5C)nc4c3)c12 [P-0172, 4-((1R,5S)-3,8-diazabicyclo[3.2.1]octan-3-yl)-7-(3-methyl-1H-indazol-4-yl)-2-(((S)-1-methylpyrrolidin-2-yl)methoxy)quinazoline] | 10 to 100 | 100 to 1000
Oc1cc(-c2ccc3c(N4[C@@H]5CC[C@H]4CNC5)nc(Cc4cccnc4)nc3c2)c2ccccc2c1 [P-0240, 4-(4-((1R,5S)-3,8-diazabicyclo[3.2.1]octan-8-yl)-2-(pyridin-3-ylmethyl)quinazolin-7-yl)naphthalen-2-ol] | 0.0001 to 10 | 0.0001 to 10
CN1CCC[C@H]1COc1nc(N2C[C@H]3CC[C@@H](C2)N3CC(N)=O)c2ccc(-c3cc(O)cc4ccccc34)c(F)c2n1 [P-0144, 2-((1R,5S)-3-(8-fluoro-7-(3-hydroxynaphthalen-1-yl)-2-(((S)-1-methylpyrrolidin-2-yl)methoxy)quinazolin-4-yl)-3,8-diazabicyclo[3.2.1]octan-8-yl)acetamide] | 0.0001 to 10 | 0.0001 to 10
Cc1cccc2c1N(c1ccc3c(N4C[C@H]5CC[C@@H](C4)N5)nc(OC[C@@H]4CCCN4C)nc3c1F)CCC2 [P-0435, 4-((1R,5S)-3,8-diazabicyclo[3.2.1]octan-3-yl)-8-fluoro-7-(8-methyl-3,4-dihydroquinolin-1(2H)-yl)-2-(((S)-1-methylpyrrolidin-2-yl)methoxy)quinazoline] | 0.0001 to 10 | 10 to 100
CNC(=O)CN1[C@@H]2CC[C@H]1CN(c1nc(OCC34CCCN3CCC4)nc3c(F)c(-c4cc(O)cc5ccccc45)ccc13)C2 [P-0627, 2-((1R,5S)-3-(8-fluoro-7-(3-hydroxynaphthalen-1-yl)-2-((tetrahydro-1H-pyrrolizin-7a(5H)-yl)methoxy)quinazolin-4-yl)-3,8-diazabicyclo[3.2.1]octan-8-yl)-N-methylacetamide] | 0.0001 to 10 | 0.0001 to 10
CN(C)c1cccc(COc2nc(N3C[C@H]4CC[C@@H](C3)N4)c3cc(Cl)c(-c4c(O)cccc4F)c(F)c3n2)c1 [P-0364, 2-(4-((1R,5S)-3,8-diazabicyclo[3.2.1]octan-3-yl)-6-chloro-2-((3-(dimethylamino)benzyl)oxy)-8-fluoroquinazolin-7-yl)-3-fluorophenol] | 0.0001 to 10 | 0.0001 to 10
Fc1c(-c2c(C(F)(F)F)ccc3[nH]ncc23)ccc2c(N3C[C@H]4CC[C@@H](C3)N4)nc(OCC34CCCN3CCC4)nc12 [P-0506, 4-((1R,5S)-3,8-diazabicyclo[3.2.1]octan-3-yl)-8-fluoro-2-((tetrahydro-1H-pyrrolizin-7a(5H)-yl)methoxy)-7-(5-(trifluoromethyl)-1H-indazol-4-yl)quinazoline] | 0.0001 to 10 | 10 to 100
CCN1CCC(NC(=O)N2C[C@H]3CC[C@@H](C2)N3c2nc(OC[C@@H]3CCCN3C)nc3cc(-c4cc(O)cc5ccccc45)ccc23)C1 (stereo partly drawn) [P-0215, (1R,5S)-N-(1-ethylpyrrolidin-3-yl)-8-(7-(3-hydroxynaphthalen-1-yl)-2-(((S)-1-methylpyrrolidin-2-yl)methoxy)quinazolin-4-yl)-3,8-diazabicyclo[3.2.1]octane-3-carboxamide] | 10 to 100 | 100 to 1000
Fc1cc2c(N3C[C@H]4CC[C@@H](C3)N4)nc(OCC34CCCN3CCC4)nc2c(F)c1-c1c[nH]c2ccc(Cl)cc12 [P-0373, 4-((1R,5S)-3,8-diazabicyclo[3.2.1]octan-3-yl)-7-(5-chloro-1H-indol-3-yl)-6,8-difluoro-2-((tetrahydro-1H-pyrrolizin-7a(5H)-yl)methoxy)quinazoline] | 0.0001 to 10 | 10 to 100
